Reference: US20220096486A1, “COMPOUNDS FOR USE IN THE TREATMENT OF ADCY5-RELATED DYSKINESIA” (ASSISTANCE PUBLIQUE - HOPITAUX DE PARIS, priority 2019, published 2022)
“Also recorded” adds a separate entry of the source.

Experiments:
[1] = system: patients with ADCY5-related dyskinesia; experiment: Seven patients treated with caffeine; dyskinesia episodes and self-rated improvement; type: in vivo, human; settings: 150 to 800 mg of caffeine per day, all cases
Protocol: Currently, seven patients are treated with caffeine with similar results with uptakes varying from 150 to 800 mg of caffeine per day. […] Four of them were asked to rate the improvement brought by caffeine on their involuntary movements, on a scale of 0 (no improvement) to 100% (major improvement with total disappearance of symptoms). All four reported an improvement of 80 to 100%.

[2] = system: patient with ADCY5-related dyskinesia
Excerpt: The patient is a child with the disorder. Pregnancy, birth and first acquisitions were unremarkable. They developed diurnal and nocturnal episodes of hyperkinetic involuntary movements involving the face and upper limbs, lasting from a few seconds to ten minutes. There was a clear kinesigenic trigger for some of the episodes, others were exercise-induced, and a few were spontaneous. In addition, they were described as clumsy, and had difficulties in various activities of daily living such as fine motor tasks or riding a bike. Frequency of the episodes was around 30 per day, causing significant disruption of activities. […] Interictal neurological examination was normal except for some fleeting choreodystonic movements. Because of the co-occurrence of several types of paroxysmal dyskinesia, the patient was first tested for mutations in the SLC2A1 and ADCY5 genes. Genetic analysis was negative for SLC2A1 but found a mosaic heterozygous mutation in the ADCY5 gene (c.2088+1G>A), previously reported as pathogenic (Carapito et al., A de novo ADCY5 mutation causes early-onset autosomal dominant chorea and dystonia. Mov Disord. 2015; 30(3):423-7).
Caffeine was the first treatment tried.

A2AR knockout mice = settings: cited from earlier work

In the case of `Cn1c(=O)c2c(ncn2C)n(C)c1=O` [caffeine, 1,3,7-trimethylxanthine], the “effect on dyskinesia episodes” value [1] is reported as “reduction or a suppression of dyskinesia episodes”, the “effect of resuming caffeine intake after four days of decaffeinated coffee” value ([2]; after unknowing switch to decaffeinated coffee with reversal to baseline) is reported as “immediately restored the improvement” and the “effect on diurnal and nocturnal episodes of dyskinesia” value ([2]; espresso in the morning, second espresso in the afternoon, half an espresso at bedtime, baseline around 30 episodes per day) is reported as “next to complete resolution; also recorded: near-complete resolution”. The “remaining short and non-disruptive episodes during the day” value ([2]; espresso morning, afternoon and half at bedtime, baseline around 30 episodes per day) was “at most one or two”, the “start of dramatic response after intake” value ([2]; one espresso in the morning, approximately 100 mg of caffeine, child, c.2088+1G>A ADCY5 mutation) was 45 min and the wake-promoting effect (A2AR knockout mice) was “abolished”.
